Data reported in patent US8580814B2, “Methods of using (+)-1,4-dihydro-7-[(3S,4S)-3-methoxy-4-(methylamino)-1-pyrrolidinyl]-4- oxo-1-(2-thiazolyl)-1,8-naphthyridine-3-carboxylic acid for treatment of cancer” (priority 2006, dated 2013).
In brackets after ≈: the same amount, converted by molar mass.

What was measured:
[1] = system: CCRF-CEM (lymphoblastic leukemia); test: MTT cell viability assay, leukemia cells; format: cell-based; conditions: Homo sapiens, MTT after 72 hours
Experimental: (§1) The following cell lines were used in this assay: HL-60 (promyelocytic leukemia); Jurkat (T cell leukemia); CCRF-CEM (lymphoblastic leukemia); CEM/C2 (camptothecan resistant derivative of CCRF-CEM). Cells were seeded in 96 wells plates at 3000 cells per well and incubated for 16 hours. […] Titrations were diluted 1:100 in media to achieve final compound concentrations. The 96 well plates were aspirated and compound dilutions in media were added ([…]). MTT analysis was carried out after 72 hours of incubation at 37° C. Briefly, […] of MTT solution was added to each well. Cells were incubated at 37° C. for 1-2 hours. […] Plates were read on a spectromax machine with an absorbance measurement at […]. IC50's were calculated (data provided in Table 13) using regression analysis within GraphPad Prism.

[2] = system: CEM/C2 (camptothecan resistant derivative of CCRF-CEM); test: MTT cell viability assay, leukemia cells; format: cell-based; conditions: Homo sapiens; CEM/C2, MTT after 72 hours
Experimental: as §1

Jurkat (T cell leukemia) = test: MTT cell viability assay, leukemia cells; format: cell-based; conditions: Homo sapiens, MTT after 72 hours
Experimental: as §1

[3] = system: HL-60 (promyelocytic leukemia); test: MTT cell viability assay, leukemia cells; format: cell-based; conditions: Homo sapiens; HL-60, MTT after 72 hours
Experimental: as §1

HCT116 cells = test: High content screening and microscopy, nuclear foci (gH2AX, pATM); format: cell-based; conditions: HCT116 cells dosed for 6 hour
Experimental: Cells were plated as sub-confluent populations and allowed to grow for 36 hours. Cells were then treated with the compound at the given concentration for the given time period. Cells were fixed using 4% formaldehyde and permeabilized with 0.1% triton. Cells were exposed to primary antibodies for 1 hour at 25° C. at a 1:100 dilution in 10% FBS/PBS (anti-pATM—Chemicon, anti-gH2AX-Cell Signaling Technology). Cells were exposed to secondary antibodies for 1 hour at 25° C. at a 1:100 dilution in 10% FBS/PBS. Hoechst staining was carried out in 10% FBS/PBS at 500 ng/ml concentrations. High content screening was carried out on a Cellomics Arrayscan instrument using the Spot Detector algorithm. […] Cells were then fixed and analyzed for protein phosphorylation state (gH2AX images obtained using a fluorescence microscope, pATM images obtained with the ArrayScan VTi).

clinical = conditions: human, in vivo; for AUC(0-inf) / half-life: both sexes
Experimental: SNS-595 was administered to patients with advanced or refractory acute leukemias as a slow IV push. Diagnoses included AML (19 patients) and ALL (2 patients). All patients had disease refractory to or relapsed from prior therapy (median 3 prior regimens (range 1-6)).
A total of 21 patients (9 female and 12 male; median age=64 yrs, range 21-80) were treated in five cohorts using two schedules. In the first schedule (A), a weekly dose of SNS-595 was administered for three weeks followed by 7 days off (qwk×3). In the second schedule (B), a dose of SNS-595 was administered twice a week for two weeks (biwk×2). The cycle duration, including days off, was 28 days for both schedules. […] Additional cycles were permitted if patients achieved stable disease or better. The starting dose was 18 mg/m^2 on schedule A and 9 mg/m^2 on schedule B, and dosage was escalated by cohort. Cohorts of 3-6 patients were accrued to doses using a modified Fibonacci sequence.
Pharmacokinetic analyses for SNS-595 were performed on plasma samples collected during cycle 1.
Plasma SNS-595 concentrations were determined using a validated LC-MS/MS assay. Plasma exposures at the first two dose levels for each schedule increased linearly, resulting in AUCs of 4.3-17.8 ughr/mL for 9-27 mg/m^2 doses. […] Six patients distributed across all dosing groups shown in Table 15 experienced greater than 50% reductions in peripheral blasts following cycle 1.

p73 null cells = test: SNS-595 sensitivity in p73 null vs p73 containing cells; format: cell-based; conditions: p73 null cells as compared to p73 containing cells
HCT-116 = test: Timing of apoptosis (caspase-3 activation); format: cell-based; conditions: Cell Line HCT-116; dosed at 30 fold above the EC50 for cytotoxicity

## CN[C@H]1CN(c2ccc3c(=O)c(C(=O)O)cn(-c4nccs4)c3n2)C[C@@H]1OC [SNS-595, (+)-1,4-dihydro-7-[(3S,4S)-3-methoxy-4-(methylamino)-1-pyrrolidinyl]-4-oxo-1-(2-thiazolyl)-1,8-naphthyridine-3-carboxylic acid]
[1]
  IC50: 0.018 µg/mL (≈ 0.0448 µM)
[2]
  IC50: 0.01 µg/mL (≈ 0.0249 µM)
Jurkat (T cell leukemia)
  IC50: 0.023 µg/mL (≈ 0.0573 µM)
[3]
  IC50: 0.053 µg/mL (≈ 0.132 µM)
HCT116 cells
  nuclear foci formation (gH2AX, pATM): leads to nuclear foci formation
clinical; 9 mg/m2
  AUC(0-inf): 4300 ± 1300 ng·h/mL
clinical; 13.5 mg/m2
  AUC(0-inf): 5900 ± 2900 ng·h/mL
  half-life: 21 ± 7 h
clinical; 18 mg/m2
  AUC(0-inf): 8000 ± 1400 ng·h/mL
clinical; 27 mg/m2
  AUC(0-inf): 17800 ± 5000 ng·h/mL
  half-life: 22 ± 10 h
clinical; both
  terminal half-lives, averaged: 23 h
clinical; both, 9 mg/m2
  T ½: 24 ± 5 h
  Vssobs: 65 ± 2 L/m^2
clinical; both, 13.5 mg/m2
  Vssobs: 61 ± 6 L/m^2
clinical; both, 18 mg/m2
  T ½: 24 ± 4 h
  Vssobs: 72 ± 21 L/m^2
clinical; both, 27 mg/m2
  Vssobs: 47 ± 21 L/m^2
clinical
  CL, averaged: ~2 L/hr/m^2
  Vss, averaged: 58 L/m^2
p73 null cells
  decrease in SNS-595 sensitivity: more than 11 fold
HCT-116
  Timing of apoptosis: fraction of cell cycle to achieve 50% maximal caspase-3 activation: 0.4
